SMILES strings stand for the structures.

We go through 20 compounds from patent publication US20160237059A1, “HETEROCYCLIC SUBSTITUTED TRIFLUOROMETHYL PYRIMIDINONES AND THEIR USE” (BAYER PHARMA AKTIENGESELLSCHAFT, priority 2013, published 2016).

Assay [1] concerns the target T1, human CCR2 (Homo sapiens, UniProt P41597).
T1 construct: host or cells: Chem-1 cell line
T1 sequence (P41597 1-360 isoform P41597-2): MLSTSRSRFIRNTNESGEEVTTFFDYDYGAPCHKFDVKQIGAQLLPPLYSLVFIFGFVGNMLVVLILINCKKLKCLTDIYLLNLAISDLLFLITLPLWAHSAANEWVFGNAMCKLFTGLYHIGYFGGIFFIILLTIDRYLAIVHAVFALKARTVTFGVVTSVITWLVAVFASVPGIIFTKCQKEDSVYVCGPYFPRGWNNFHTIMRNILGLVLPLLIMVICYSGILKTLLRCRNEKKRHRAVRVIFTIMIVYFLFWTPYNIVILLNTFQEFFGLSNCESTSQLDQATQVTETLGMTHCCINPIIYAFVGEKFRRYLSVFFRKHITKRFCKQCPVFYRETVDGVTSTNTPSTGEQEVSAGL
In words: Functional Ca2+ release test (B-1). The format is cell-based. The settings on record: Chem-1 cell line transfected with human CCR2; 50% inhibition of the MCP-1 effect, MCP-1 at EC50 (about 5 nM); in some cases means of several determinations. As for the experimental part: The antagonistic action of test substances on CCR2 was determined in a functional Ca^2+ release test. Binding of CCL2/MCP-1 to CCR2 leads to a change in the conformation of the receptor resulting in Gi/Gq protein activation and intracellular signal cascade. This involves, inter alia, an intracellular Ca^2+ release. The test cell used was a Chem-1 cell line transfected with human CCR2 (ChemiSCREEN™ CCR2B Calcium-Optimized FLIPR Cell Line, Merck Millipore).
(§1) The test substances were dissolved in dimethyl sulphoxide (DMSO) at a concentration of 10 mM and serially diluted with DMSO in steps of 1:3.16 for a 10-point dose/activity analysis. According to the desired test concentrations, the substances were pre-diluted in Tyrode with 2 mM CaCl2 and 0.05% BSA.
The cells, cultivated in DMEM high glucose [supplemented with 10% FCS, 1 mM pyruvate, 15 mM HEPES, 500 μg/ml geniticin and non-essential amino acids (NEAA)], were sown at 5000 cells/25 μl in 384 well, μCLEAR/black cell culture plates from Greiner (#781092) and incubated at 37° C. for 24 h. The sowing medium consisted of DMEM high glucose [supplemented with 5% FCS, 1 mM pyruvate, 15 mM HEPES, 50 U/ml penicillin, 50 μg/ml streptomycin and non-essential amino acids (NEAA)]. The medium was then removed and the cells were charged for 60 min at 37° C. with Fluo-4 dye [25 μl Tyrode with 3 μM Fluo-4 AM (1 mM DMSO stock solution), 0.4 mg/ml Brilliant Black, 2.5 mM probenicid, 0.03% Pluronic F-127]. The cells were pre-incubated for 10 min with 10 μl of the test substances diluted in buffer, and 20 μl of agonist solution (MCP-1 in Tyrode with 0.05% BSA) were then added. MCP-1 was employed at the concentration which corresponds to the EC50 which had been determined in a preliminary test (usually about 5 nM). Ca^2+ release was monitored over a period of 120 s in 1 s increments in a proprietary fluorescence imaging reader. The molar concentration of the test substance which caused 50% inhibition of the MCP-1 effect (IC50) was determined using a 4-parameter logistic function (Hill function).

The target in assay [2] is T2, murine CCR2 (Mus musculus, UniProt P51683).
T2 construct: host or cells: U2OS β-arrestin cell line
In words: Functional β-arrestin recruiting test with murine MCP-1 (B-2b). It counts as cell-based. The settings on record: U2OS β-arrestin cell line transfected with murine CCR2; agonist murine MCP-1; in some cases means of several determinations. As for the experimental part:
The antagonistic action of test substances on CCR2 was determined in a β-arrestin test. The PathHunter β-arrestin GPCR test system (DiscoveRx Corporation, Ltd.) is a cell-based functional method for detecting binding of β-arrestin to an activated receptor. The molecular basis is a […] complementation measured by the enzymatic conversion of a chemiluminescent substrate. The test cell used was a U2OS β-arrestin cell line transfected with murine CCR2 (93-0543C3, DiscoveRx Corporation, Ltd.).
as §1
The cells, cultivated in MEM Eagle (supplemented with 10% FCS, 50 U/ml of penicillin, 50 μg/ml of streptomycin, 250 μg/ml of hygromycin and 500 μg/ml of geniticin), were sown at 2000 cells/25 μl in 384 well, μCLEAR/black cell culture plates from Greiner (#781092) and incubated at 37° C. for 24 h. The sowing medium consisted of Opti-MEM (supplemented with 1% FCS, 50 U/ml of penicillin and 50 μg/ml of streptomycin). The cells were pre-incubated for 10 min with 10 μl of the test substances diluted in buffer, and 10 μl of agonist solution [human MCP-1 (PeproTech, #300-04) in Tyrode with 0.05% BSA) were then added. The human MCP-1 was employed at the concentration which corresponds to the EC50 which had been determined in a preliminary test (usually about 3 nM). After 90 min of incubation at 37° C., the solution was removed, and recruitment of β-arrestin to CCR2 was detected with the aid of the PathHunter detection reagent (93-001, DiscoveRx Corporation, Ltd.) according to the instructions of the manufacturer. Luminescence was measured after an incubation time of 60 min using a proprietary luminescence imaging measuring instrument. The molar concentration of the test substance which caused 50% inhibition of the MCP-1 effect (IC50) was determined using a 4-parameter logistic function (Hill function).
The test was carried out in a manner identical to that described above under B-2a, but using murine MCP-1 (PeproTech, #250-10) as agonist.

T2 sequence (P51683 whole entry): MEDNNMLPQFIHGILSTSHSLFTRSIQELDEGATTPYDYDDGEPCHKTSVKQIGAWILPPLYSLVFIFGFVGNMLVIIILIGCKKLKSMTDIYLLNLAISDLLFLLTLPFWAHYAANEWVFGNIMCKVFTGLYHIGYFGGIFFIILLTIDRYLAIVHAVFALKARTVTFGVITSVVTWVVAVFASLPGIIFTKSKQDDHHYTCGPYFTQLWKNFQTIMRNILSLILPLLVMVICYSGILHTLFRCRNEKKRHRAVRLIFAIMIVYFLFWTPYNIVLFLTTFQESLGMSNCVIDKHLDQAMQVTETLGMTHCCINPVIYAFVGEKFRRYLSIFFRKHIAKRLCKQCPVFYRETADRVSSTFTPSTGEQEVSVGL

Broadly, the IC50 is the point on the concentration scale where inhibition reaches its midpoint. Read a low IC50 as greater potency in that assay. For the compound `CSc1cccnc1-c1nc(C(F)(F)F)c(Oc2ccc(Cl)c(C(F)(F)F)c2)c(=O)[nH]1` [Example 114], the figures for the IC50 in assay [1] and in assay [2] were 0.1 nM and 6.1 nM, respectively.
For `CSc1cccnc1-c1nc(C(F)(F)F)c(Oc2ccc(Cl)c(Cl)c2)c(=O)[nH]1` [Example 115, 5-(3,4-dichlorophenoxy)-2-[3-(methylsulphanyl)pyridin-2-yl]-6-(trifluoromethyl)pyrimidin-4(3H)-one], in that order: 0.2 nM and 7.6 nM.
For `COc1nccnc1-c1nc(C(F)(F)F)c(Oc2ccc(Cl)c(C(F)(F)F)c2)c(=O)[nH]1` [Example 116], in that order: 0.3 nM and 37 nM.
Take `COc1nccnc1-c1nc(C(F)(F)F)c(Oc2ccc(Cl)c(Cl)c2)c(=O)[nH]1` [Example 117, 5-(3,4-dichlorophenoxy)-2-(3-methoxypyrazin-2-yl)-6-(trifluoromethyl)pyrimidin-4(3H)-one]: the IC50 in assay [1] worked out at 0.3 nM; in assay [2], 36 nM.
For `O=c1[nH]c(-c2cccnn2)nc(C(F)(F)F)c1Oc1ccc(Cl)c(C(F)(F)F)c1` [Example 118, 5-[4-chloro-3-(trifluoromethyl)phenoxy]-2-(pyridazin-3-yl)-6-(trifluoromethyl)pyrimidin-4(3H)-one], the IC50 in assay [1] turned out to be 0.4 nM; in assay [2], 73 nM.
For `COc1ccc(-c2nc(C(F)(F)F)c(Oc3ccc(Cl)c(C(F)(F)F)c3)c(=O)[nH]2)nc1` [Example 119, 5-[4-chloro-3-(trifluoromethyl)phenoxy]-2-(5-methoxypyridin-2-yl)-6-(trifluoromethyl)pyrimidin-4(3H)-one], in that order: 0.4 nM and 185 nM.
For `COc1cncnc1-c1nc(C(F)(F)F)c(Oc2ccc(Cl)c(C(F)(F)F)c2)c(=O)[nH]1` [Example 120, 5-[4-chloro-3-(trifluoromethyl)phenoxy]-5′-methoxy-6-(trifluoromethyl)-2,4′-bipyrimidin-4(3H)-one], in that order: 0.5 nM and 44 nM.
For `Nc1ccc(-c2nc(C(F)(F)F)c(Oc3ccc(Cl)c(Cl)c3)c(=O)[nH]2)nn1` [Example 121, 2-(6-aminopyridazin-3-yl)-5-(3,4-dichlorophenoxy)-6-(trifluoromethyl)pyrimidin-4(3H)-one], in that order: 0.5 nM and 149 nM.
With `COc1cc(OC)nc(-c2nc(C(F)(F)F)c(Oc3ccc(Cl)c(C(F)(F)F)c3)c(=O)[nH]2)n1` [Example 122, 5-[4-chloro-3-(trifluoromethyl)phenoxy]-4′,6′-dimethoxy-6-(trifluoromethyl)-2,2′-bipyrimidin-4(3H)-one], the IC50 in assay [1] came to 0.6 nM; in assay [2], 164 nM.
Taken in the same sequence, the figures for `Nc1ccc(-c2nc(C(F)(F)F)c(Oc3ccc(Cl)c(Cl)c3)c(=O)[nH]2)nc1` [Example 123, 2-(5-aminopyridin-2-yl)-5-(3,4-dichlorophenoxy)-6-(trifluoromethyl)pyrimidin-4(3H)-one] were 0.6 nM and 28 nM.
Regarding `O=c1[nH]c(-c2ccncc2Cl)nc(C(F)(F)F)c1Oc1ccc(Cl)c(Cl)c1` [Example 124, 2-(3-chloropyridin-4-yl)-5-(3,4-dichlorophenoxy)-6-(trifluoromethyl)pyrimidin-4(3H)-one], the figures for the IC50 in assay [1] and in assay [2] were 2.9 nM and 320 nM, respectively.
Taken in the same sequence, the figures for `O=c1[nH]c(-c2cccnn2)nc(C(F)(F)F)c1Oc1ccc(Cl)c(Cl)c1` [Example 125, 5-(3,4-dichlorophenoxy)-2-(pyridazin-3-yl)-6-(trifluoromethyl)pyrimidin-4(3H)-one] were 9.5 nM and 475 nM.
Taken in the same sequence, the figures for `O=c1[nH]c(-c2ccnnc2)nc(C(F)(F)F)c1Oc1ccc(Cl)c(Cl)c1` [Example 126, 5-(3,4-dichlorophenoxy)-2-(pyridazin-4-yl)-6-(trifluoromethyl)pyrimidin-4(3H)-one] were 1120 nM and 13900 nM.
Taken in the same sequence, the figures for `O=c1[nH]c(-c2cnccn2)nc(C(F)(F)F)c1Oc1ccc(Cl)c(Cl)c1` [Example 127, 5-(3,4-dichlorophenoxy)-2-(pyrazin-2-yl)-6-(trifluoromethyl)pyrimidin-4(3H)-one] were 2.1 nM and 372 nM.
With `Nc1ccnc(-c2nc(C(F)(F)F)c(Oc3ccc(Cl)c(Cl)c3)c(=O)[nH]2)c1` [Example 128, 2-(4-aminopyridin-2-yl)-5-(3,4-dichlorophenoxy)-6-(trifluoromethyl)pyrimidin-4(3H)-one], the IC50 in assay [1] amounted to 3.2 nM; in assay [2], 360 nM.
For `O=c1[nH]c(-c2ccnnc2)nc(C(F)(F)F)c1Oc1ccc(Cl)c(C(F)(F)F)c1` [Example 129, 5-[4-chloro-3-(trifluoromethyl)phenoxy]-2-(pyridazin-4-yl)-6-(trifluoromethyl)pyrimidin-4(3H)-one], in that order: 222 nM and 2710 nM.
For `O=c1[nH]c(-c2ccncc2Cl)nc(C(F)(F)F)c1Oc1ccc(Cl)c(C(F)(F)F)c1` [Example 131, 2-(3-chloropyridin-4-yl)-5-[4-chloro-3-(trifluoromethyl)phenoxy]-6-(trifluoromethyl)pyrimidin-4(3H)-one], in that order: 2.8 nM and 158 nM.
`O=c1[nH]c(-c2cnccn2)nc(C(F)(F)F)c1Oc1ccc(Cl)c(C(F)(F)F)c1` [Example 132, 5-[4-chloro-3-(trifluoromethyl)phenoxy]-2-(pyrazin-2-yl)-6-(trifluoromethyl)pyrimidin-4(3H)-one]: the IC50 was 3.8 nM in assay [1] and 259 nM in assay [2].
For `CN(C)c1ccc(-c2nc(C(F)(F)F)c(Oc3ccc(Cl)c(Cl)c3)c(=O)[nH]2)nc1` [Example 133, 5-(3,4-dichlorophenoxy)-2-[5-(dimethylamino)pyridin-2-yl]-6-(trifluoromethyl)pyrimidin-4(3H)-one], in that order: 0.8 nM and 21700 nM.
For `CN(C)c1ccc(-c2nc(C(F)(F)F)c(Oc3ccc(Cl)c(C(F)(F)F)c3)c(=O)[nH]2)nc1` [Example 134, 5-[4-chloro-3-(trifluoromethyl)phenoxy]-2-[5-(dimethylamino)pyridin-2-yl]-6-(trifluoromethyl)pyrimidin-4(3H)-one], the IC50 in assay [1] is 2.1 nM; in assay [2], 51 nM.
